# Reference: ChEMBL document CHEMBL5154647, “Discovery of seneciobipyrrolidine derivatives for the amelioration of glucose homeostasis disorders through 4E-BP1/Akt/AMPK signaling activation” (Eur J Med Chem, 2022)
# pEC50: −log10 of the molar value. Activity calls are given as the source filed them. The calls are words filed in the database; no cut-off is given here.
# Legend:
# [1] = test system: L6; assay: Induction of glucose uptake in rat L6 myoblasts at 20 uM measured after 2 hrs by liquid scintillation counter; format: functional
# [2] = test system: L6; assay: Induction of glucose uptake in rat L6 myoblasts preincubated for 3 hrs with compound and in presence of 2-deoxyglucose measured after 1 hrs by DNTB reagent based colorimetric assay; format: functional, cell-based
# [3] = test system: L6; assay: Induction of glucose uptake in rat L6 myoblasts assessed as 2-DG concentration at 25 uM preincubated for 3 hrs and in presence of 2-deoxyglucose measured after 1 hrs by DNTB reagent based colorimetric assay; format: functional; details: time 4 hrs
# [4] = Half life in Sprague-Dawley rat at 5 mg/kg, iv measured upto 24 hrs by LC/MS/MS analysis; format: ADME, organism-based; details: in vivo
# [5] = Cmax in Sprague-Dawley rat at 5 mg/kg, iv measured upto 24 hrs by LC/MS/MS analysis; format: ADME, organism-based; parameters: dose 5 mg/kg, time < 24 hrs, route iv; details: in vivo
# [6] = AUC (0 to t) in Sprague-Dawley rat at 5 mg/kg, iv measured upto 24 hrs by LC/MS/MS analysis; format: ADME, organism-based; parameters: dose 5 mg/kg, time < 24 hrs, route iv; details: in vivo
# [7] = Tmax in Sprague-Dawley rat at 20 mg/kg, po measured upto 10 hrs by LC/MS/MS analysis; format: ADME, organism-based; details: in vivo
# [8] = Half life in Sprague-Dawley rat at 20 mg/kg, po measured upto 10 hrs by LC/MS/MS analysis; format: ADME, organism-based; details: in vivo
# [9] = Cmax in Sprague-Dawley rat at 20 mg/kg, po measured upto 10 hrs by LC/MS/MS analysis; format: ADME, organism-based; parameters: time < 10 hrs, dose 20 mg/kg, route po; details: in vivo
# [10] = AUC (0 to t) in Sprague-Dawley rat at 20 mg/kg, po measured upto 10 hrs by LC/MS/MS analysis; format: ADME, organism-based; parameters: time < 10 hrs, dose 20 mg/kg, route po; details: in vivo
# [11] = Oral bioavailability in Sprague-Dawley rat at 20 mg/kg measured upto 10 hrs by LC/MS/MS analysis; format: ADME, organism-based; details: in vivo
# [12] = test system: L6; assay: Activation of Akt in rat L6 myoblasts assessed as increase in AKT phosphorylation at Ser473 at 0.1 to 25 uM by western blot analysis; format: cell-based; details: filed as activator, dose 0.1-25 µM, DDE = dose-dependent effect
# [13] = molecular target: T1, AMP-activated protein kinase, AMPK (Rattus norvegicus) (UniProt P54645+Q09137+P80386+P80385+Q9QZH4+Q6V7V4+D4A7E4); assay: Activation of AMPK in rat L6 myoblasts assessed as increase in AMPK phosphorylation at Thr172 at 0.1 to 25 uM by western blot analysis; format: cell-based; details: filed as activator, dose 0.1-25 µM, DDE = dose-dependent effect
# [14] = test system: Mus musculus; assay: Antidiabetic activity in db/db mouse assessed as reduction in random blood glucose level at 100 mg/kg, po bid measured up to 21 days; format: functional; parameters: scale not given: the % may be the effect or the level left; details: time <= 21 day
# [15] = test system: Mus musculus; assay: Antidiabetic activity in db/db mouse assessed as reduction in random blood glucose level at 75 mg/kg, po bid measured up to 21 days; format: functional; parameters: scale not given: the % may be the effect or the level left; details: time <= 21 day
# [16] = test system: Mus musculus; assay: Antidiabetic activity in db/db mouse assessed as reduction in fasting blood glucose level at 100 mg/kg, po bid measured up to 21 days; format: functional; parameters: scale not given: the % may be the effect or the level left; details: time <= 21 day
# [17] = test system: Mus musculus; assay: Antidiabetic activity in db/db mouse assessed as reduction in fasting blood glucose level at 75 mg/kg, po bid measured up to 21 days; format: functional; parameters: scale not given: the % may be the effect or the level left; details: time <= 21 day
# [18] = test system: Mus musculus; assay: Antidiabetic activity in db/db mouse assessed as reduction in blood glucose level at 100 mg/kg, po bid measured after 6 hrs; format: functional; parameters: scale not given: the % may be the effect or the level left
# [19] = test system: Mus musculus; assay: Improvement in glucose tolerance in db/db mouse assessed as reduction in blood glucose level at 300 mg/kg, po measured after 20 days; format: functional, organism-based; details: time 20.0 day
# [20] = test system: Mus musculus; assay: Improvement in glucose tolerance in db/db mouse assessed as reduction in blood glucose level at 100 mg/kg, po measured after 20 days; format: functional, organism-based; details: time 20.0 day
# [21] = Toxicity in db/db mouse assessed as decrease in body weight at 100 mg/kg, po administered for 21 days; format: organism-based; details: in vivo, 504 h, time 21 day
# [22] = Toxicity in db/db mouse assessed as increase in body weight at 75 mg/kg, po administered for 21 days; format: organism-based; details: in vivo, 504 h, time 21 day
# [23] = Toxicity in db/db mouse assessed as reduction in triglyceride at 75 mg/kg, po administered for 21 days; format: organism-based; details: in vivo, 504 h, time 21 day
# [24] = Toxicity in db/db mouse assessed as reduction in triglyceride at 100 mg/kg, po administered for 21 days; format: organism-based; details: in vivo, 504 h, time 21 day
# [25] = Toxicity in db/db mouse liver assessed as reduction of fat accumulation in liver at 100 mg/kg, po bid administered for 21 days by H and E staining based microscopic analysis; format: organism-based; details: in vivo, 504 h, time 21 day
# [26] = Toxicity in db/db mouse assessed as effect on muscle tissue morphology at 100 mg/kg, po bid administered for 21 days by H and E staining based microscopic analysis; format: organism-based; details: in vivo, 504 h, time 21 day
# [27] = test system: L6; assay: Time dependent activation of Akt in rat L6 myoblasts assessed as increase in AKT phosphorylation at Ser473 at 10 to 180 min by western blot analysis; format: cell-based; details: filed as activator, time 10-180 min, TDE = time-dependent effect
# [28] = molecular target: Eukaryotic translation initiation factor 4E-binding protein 1 (Rattus norvegicus) (UniProt Q62622); assay: Activation of 4E-BP1 in rat L6 myoblasts assessed as increase in 4E-BP1 protein level at 0.1 to 25 uM by western blot analysis; format: cell-based; details: filed as activator, dose 0.1-25 µM, DDE = dose-dependent effect
# [29] = molecular target: T1, AMP-activated protein kinase, AMPK (Rattus norvegicus); assay: Time dependent activation of AMPK in rat L6 myoblasts assessed as increase in AMPK phosphorylation at Thr172 at 10 to 180 min by western blot analysis; format: cell-based; details: filed as activator, time 10-180 min, TDE = time-dependent effect
# [30] = molecular target: Eukaryotic translation initiation factor 4E-binding protein 1 (Rattus norvegicus) (UniProt Q62622); assay: Time dependent activation of 4E-BP1 in rat L6 myoblasts assessed as increase in 4E-BP1 protein level at 10 to 180 min by western blot analysis; format: cell-based; details: filed as activator, time 10-180 min, TDE = time-dependent effect
# [31] = test system: L6; assay: Activation of Akt in rat L6 myoblasts assessed as increase in Akt protein level at 25 uM measured after 30 mins by western blot analysis; format: cell-based; details: filed as activator
# [32] = molecular target: T1, AMP-activated protein kinase, AMPK (Rattus norvegicus); assay: Activation of AMPK in rat L6 myoblasts assessed as increase in AMPK protein level at 25 uM measured after 30 mins by western blot analysis; format: cell-based; details: filed as activator
# [33] = molecular target: Eukaryotic translation initiation factor 4E-binding protein 1 (Rattus norvegicus) (UniProt Q62622); assay: Activation of 4E-BP1 in rat L6 myoblasts assessed as increase in 4E-BP1 protein level at 25 uM measured after 30 mins by western blot analysis; format: cell-based; details: filed as activator
# [34] = test system: L6; assay: Activation of Akt in rat L6 myoblasts assessed as increase in AKT phosphorylation at Ser473 at 25 uM measured after 30 mins by western blot analysis; format: cell-based; details: filed as activator
# [35] = molecular target: T1, AMP-activated protein kinase, AMPK (Rattus norvegicus); assay: Activation of AMPK in rat L6 myoblasts assessed as increase in AMPK phosphorylation at Thr172 at 25 uM measured after 30 mins by western blot analysis; format: cell-based; details: filed as activator
# [36] = Toxicity in db/db mouse assessed as reduction in total cholesterol at 75 to 100 mg/kg, po administered for 21 days; format: organism-based; details: in vivo, 504 h, dose 75-100 mg/kg, time 21 day
# [37] = Toxicity in db/db mouse assessed as effect on pancreas morphology at 100 mg/kg, po bid administered for 21 days by H and E staining based microscopic analysis; format: organism-based; details: in vivo, 504 h, time 21 day
# [38] = test system: Liver; assay: Effect on 4E-BP1 in db/db mouse liver assessed as increase in 4E-BP1 protein level at 100 mg/kg, po bid administered for 21 days by immunohistochemical staining analysis; format: functional, organism-based; details: time 21.0 day
# [39] = test system: Muscle tissue; assay: Effect on 4E-BP1 in db/db mouse muscle tissue assessed as increase in 4E-BP1 protein level at 100 mg/kg, po bid administered for 21 days by immunohistochemical staining analysis; format: functional, organism-based; details: time 21.0 day
# [40] = test system: Pancreas; assay: Effect on 4E-BP1 in db/db mouse pancreas assessed as increase in 4E-BP1 protein level at 100 mg/kg, po bid administered for 21 days by immunohistochemical staining analysis; format: functional, organism-based; details: time 21.0 day
# [41] = test system: L6; assay: Induction of glucose uptake in rat L6 myoblasts at 3 uM measured after 2 hrs by liquid scintillation counter; format: functional
# [42] = Microsomal stability in mouse liver microsomes assessed as half life preincubated with NADPH measured upto 60 mins by LC-MS analysis; format: ADME, Microsome
# [43] = Microsomal stability in monkey liver microsomes assessed as half life preincubated with NADPH measured upto 60 mins by LC-MS analysis; format: ADME, Macaca mulatta, Microsome; details: rhesus monkey
# Sequence of Eukaryotic translation initiation factor 4E-binding protein 1 (Rattus norvegicus) (Q62622 whole entry): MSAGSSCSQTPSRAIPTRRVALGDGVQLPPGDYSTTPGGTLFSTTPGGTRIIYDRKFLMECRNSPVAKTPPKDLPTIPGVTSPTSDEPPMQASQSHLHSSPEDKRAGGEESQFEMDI
structure (smiles),measurement,setting,value
COc1ccc2c(c1)[C@H]1[C@H](CCN1CCc1ccc(Cl)cc1)[C@H]1CCCN21 (racemic),Activity,[1],215.6%
same,pEC50,[2],5.57
same,Activity,[3],81.9 pmol/µL
same,half-life,[4],3.9 h
same,Cmax,[5],542 ng/mL
same,AUC(0-t) at 24 h,[6],588 ng·h/mL
same,Tmax,[7],0.5 h
same,half-life,[8],12.4 h
same,Cmax,[9],141 ng/mL
same,AUC(0-t) at 10 h,[10],469 ng·h/mL
same,bioavailability,[11],19.9%
same,Activity,[12],Dde
same,Activity,[13],Dde
same,Activity,[14],79%
same,Activity,[15],77.2%
same,Activity,[16],62.1%
same,Activity,[17],65.5%
same,Activity,[18],38.1%
same,Activity,[19],Active
same,Activity,[20],Active
same,Activity,[21],Toxic
same,Activity,[22],Non-Toxic
same,Activity,[23],Toxic
same,Activity,[24],Toxic
same,Activity,[25],Toxic
same,Activity,[26],Non-Toxic
same,Activity,[27],Tde
same,Activity,[28],Dde
same,Activity,[29],Tde
same,Activity,[30],Tde
same,Activity,[31],Active
same,Activity,[32],Active
same,fold change (FC),[33],2
same,Activity,[34],Active
same,Activity,[35],Active
same,Activity,[36],Toxic
same,Activity,[37],Non-Toxic
same,Activity,[38],Active
same,Activity,[39],Active
same,Activity,[40],Active
COc1ccc2c(c1)[C@H]1[C@H](CCN1Cc1ccc(C)cc1)CN2C (racemic),Activity,[1],80.6%
COc1ccc2c(c1)[C@H]1[C@H](CCN1C(=O)c1ccc3ccccc3c1)[C@H]1CCCN21 (racemic),Activity,[1],172.4%
same,pEC50,[2],4.46
same,Activity,[3],52.9 pmol/µL
COc1ccc(N2CC[C@@H]3[C@@H]4CCCN4c4ccc(OC)cc4[C@@H]32)cc1 (racemic),Activity,[1],46.2%
COc1ccc2c(c1)[C@H]1[C@H](CCN1CCc1ccc(C)cc1)[C@H]1CCCN21 (racemic),Activity,[1],86.3%
COc1ccc2c(c1)[C@H]1[C@H](CCN1Cc1ccccc1)[C@H]1CCCN21 (racemic),Activity,[1],66.4%
same,Activity,[3],51.6 pmol/µL
COc1cc2c(cc1OC)N1CCC[C@@H]1[C@H]1CCN(Cc3ccc(C)cc3)[C@@H]21 (racemic),Activity,[1],34.2%
COc1cc(C[C@H]2C(=O)OC[C@@H]2Cc2ccc(OC)c(OC)c2)ccc1O [ARCTIGENIN],Activity,[3],23.5 pmol/µL
same,Activity,[41],146%
Fc1ccc(N2CC[C@@H]3[C@@H]4CCCN4c4ccc(F)cc4[C@@H]32)cc1 (racemic),Activity,[1],58.3%
NC(=O)Cc1ccc(N2CC[C@@H]3[C@H]4CCCN4c4ccc(CC(N)=O)cc4[C@@H]32)cc1 (racemic),half-life,[42],3.12 h
same,half-life,[43],0.578 h
COc1ccc2c(c1)[C@H]1[C@H](CCN1Cc1ccc(Cl)cc1)[C@H]1CCCN21 (racemic),Activity,[1],22.3%
COc1cccc(N2CC[C@@H]3[C@H]4CCCN4c4cc(OC)ccc4[C@@H]32)c1 (racemic),Activity,[1],22.4%
COc1ccc2c(c1)[C@H]1[C@H](CCN1C(=O)Cc1ccc(Cl)cc1)[C@H]1CCCN21 (racemic),Activity,[1],98.1%
same,Activity,[3],33.1 pmol/µL
